Experimental findings from ChEMBL document CHEMBL1697731, “Cheminformatics analysis of assertions mined from literature that describe drug-induced liver injury in different species” (Chem Res Toxicol, 2010) are described below.

Data set [1] deals with Hepatotoxicity. As to the kind of experiment: Literature-mined compound from Fourches et al multi-species drug-induced liver injury (DILI) dataset, effect in humans. The following applies: human.
The test system of data set [2] is Hepatotoxicity. As to the kind of experiment: Literature-mined compound from Fourches et al multi-species drug-induced liver injury (DILI) dataset, effect in rodents. The note with it: rodentia.
The test system of data set [3] is Hepatotoxicity. Nature of the data set: Literature-mined compound from Fourches et al multi-species drug-induced liver injury (DILI) dataset, effect in non-rodents.

Take `CC(=O)N(O)CCCCCNC(=O)CCC(=O)N(O)CCCCCNC(=O)CCC(=O)N(O)CCCCCN` [DEFEROXAMINE]: the Hepatotoxicity result in the data set with Hepatotoxicity [1], in the data set on Hepatotoxicity [2] and with Hepatotoxicity [3] was “drug-induced liver injury reported” in each case.

As to `C[C@H](CCC(=O)O)[C@H]1CC[C@H]2[C@@H]3C(=O)C[C@@H]4CC(=O)CC[C@]4(C)[C@H]3CC(=O)[C@]12C` [DEHYDROCHOLIC ACID], the Hepatotoxicity result in the data set on Hepatotoxicity [1] is given as “no drug-induced liver injury reported”; with Hepatotoxicity [2], “drug-induced liver injury reported”; with Hepatotoxicity [3] it was “no drug-induced liver injury reported”.

For the molecule `CCC1=C(C[C@H]2NCCc3cc(OC)c(OC)cc32)C[C@H]2c3cc(OC)c(OC)cc3CCN2C1` [DEHYDROEMETINE], the Hepatotoxicity result is recorded as “no drug-induced liver injury reported” in the data set on Hepatotoxicity [1], “drug-induced liver injury reported” with Hepatotoxicity [2] and “no drug-induced liver injury reported” with Hepatotoxicity [3].

For `C#C[C@]1(O)CC[C@H]2[C@@H]3CCC4=CCCC[C@@H]4[C@H]3C(=C)C[C@@]21CC` [DESOGESTREL], the results for the Hepatotoxicity entry in the data set on Hepatotoxicity [1], with Hepatotoxicity [2] and in the data set on Hepatotoxicity [3] were “drug-induced liver injury reported”, “no drug-induced liver injury reported” and “no drug-induced liver injury reported”, respectively.

`CN1C(=O)[C@@H](NC(=O)c2cc3ccccc3[nH]2)N=C(c2ccccc2)c2ccccc21` [DEVAZEPIDE]: the Hepatotoxicity result in the data set on Hepatotoxicity [1] is “no drug-induced liver injury reported”; in the data set with Hepatotoxicity [2], “drug-induced liver injury reported”; in the data set on Hepatotoxicity [3], “no drug-induced liver injury reported”.

Turning to `C[C@@H]1C[C@H]2[C@@H]3CCC4=CC(=O)C=C[C@]4(C)[C@@]3(F)[C@@H](O)C[C@]2(C)[C@@]1(O)C(=O)CO` [DEXAMETHASONE], the Hepatotoxicity entry in the data set with Hepatotoxicity [1], in the data set on Hepatotoxicity [2] and in the data set on Hepatotoxicity [3] was “drug-induced liver injury reported” throughout.

With `CCN[C@@H](C)Cc1cccc(C(F)(F)F)c1` [DEXFENFLURAMINE], the Hepatotoxicity entry is “drug-induced liver injury reported” with Hepatotoxicity [1], “drug-induced liver injury reported” in the data set with Hepatotoxicity [2] and “no drug-induced liver injury reported” with Hepatotoxicity [3].

As for `C[C@@H](CN1CC(=O)NC(=O)C1)N1CC(=O)NC(=O)C1` [DEXRAZOXANE], the Hepatotoxicity result in the data set with Hepatotoxicity [1] is “no drug-induced liver injury reported”; in the data set with Hepatotoxicity [2], “drug-induced liver injury reported”; in the data set on Hepatotoxicity [3] it was “no drug-induced liver injury reported”.

As for `O=C[C@H](O)[C@@H](O)[C@H](O)[C@H](O)CO[C@H]1O[C@H](CO[C@H]2O[C@H](CO)[C@@H](O)[C@H](O)[C@H]2O)[C@@H](O)[C@H](O)[C@H]1O` [DEXTRAN], the Hepatotoxicity result with Hepatotoxicity [1] is given as “no drug-induced liver injury reported”; in the data set on Hepatotoxicity [2], “drug-induced liver injury reported”; with Hepatotoxicity [3] it was “drug-induced liver injury reported”.

`C[C@H](N)Cc1ccccc1` [DEXTROAMPHETAMINE]: the results for the Hepatotoxicity result with Hepatotoxicity [1], in the data set on Hepatotoxicity [2] and with Hepatotoxicity [3] were “no drug-induced liver injury reported”, “drug-induced liver injury reported” and “no drug-induced liver injury reported”, respectively.

For the molecule `COc1ccc2c(c1)[C@]13CCCC[C@@H]1[C@H](C2)N(C)CC3` [DEXTROMETHORPHAN], the values for the Hepatotoxicity result in the data set with Hepatotoxicity [1], in the data set with Hepatotoxicity [2] and with Hepatotoxicity [3] were “drug-induced liver injury reported”, “no drug-induced liver injury reported” and “no drug-induced liver injury reported”, respectively.

Take `OC[C@H]1OC(O)[C@H](O)[C@@H](O)[C@@H]1O` (stereo partly specified) [DEXTROSE]: the Hepatotoxicity entry in the data set with Hepatotoxicity [1], with Hepatotoxicity [2] and in the data set on Hepatotoxicity [3] was “drug-induced liver injury reported” throughout.
